Data from patent US20250296916A1, “BICYCLIC PIPERAZINONES AND THERAPEUTIC USES THEREOF” (Cytokinetics, Inc., priority 2022, published 2025).

tested on: rabbit skeletal myofibrils (approximately 90% fast fibers); test: Activation of fast skeletal myofibrils (PUMA coupled-enzyme ATPase assay); type: biochemical; details: concentration at which the compound increased the enzymatic activity by 40%; calcium at pCa25; PM12 buffer pH 6.8
Description: Preparation of fast skeletal myofibrils: Rabbit skeletal myofibrils were prepared based upon the method of Herrmann et al. (Biochem. 32 (28): 7255-7263 (1993). Myofibrils were prepared from rabbit psoas muscle purchased from Pel-Freez Biologicals (Arkansas) within 2 days of ordering, stored on ice. Minced muscle was homogenized in 10 volumes of ice-cold “standard” buffer (50 mM Tris, pH 7.4, 0.1 M KOAc, 5 mM KCl, 2 mM dithiothreitol (DTT), 0.2 mM phenylmethylsulfonyl fluoride (PMSF), 10 μM leupeptin, 5 μM pepstatin, and 0.5 mM sodium azide) containing 5 mM ethylenediaminetetraacetic acid (EDTA) and 0.5% Triton X-100 using an Omni-Macro homogenizer. Myofibrils were recovered by low speed centrifugation (3000 rpm for 10 minutes) and washed 2 times in the Triton X-100 containing buffer to ensure removal of cellular membrane. Following the Triton washes, myofibrils were washed 3 times in “standard” buffer containing 2 mM magnesium acetate. A final wash in assay buffer (12 mM piperazine-1,4-bis(2-ethanesulfonic acid) (PIPES), pH 6.8, 60 mM KCl, 1 mM DTT) was performed and brought to 10% sucrose for flash freezing in liquid nitrogen and storage at −80° C.
Activation of Fast Skeletal Myofibrils: Fast fiber activators were identified by measuring the enzymatic activity of muscle myofibril preparations using the proprietary PUMA (trademark) (see, e.g., U.S. Pat. Nos. 6,410,254, 6,743,599, 7,202,051, and 7,378,254) assay system. Myofibril preparations consisted of rabbit skeletal muscle (approximately 90% fast fibers) that had been mechanically homogenized and washed with a detergent (Triton X-100) to remove cellular membranes. This preparation retained all of the sarcomeric components in a native conformation and the enzymatic activity was still regulated by calcium. Compounds were tested using a myofibril suspension and a level of calcium sufficient to increase enzymatic activity of the myofibrils to 25% of their maximal rate (termed pCa25). Enzymatic activity was tracked via a pyruvate kinase and lactate dehydrogenase-coupled enzyme system. This assay regenerates myosin-produced ADP into ATP by oxidizing NADH, producing an absorbance change at 340 nm. The buffering system was 12 mM PIPES, 2 mM MgCl2, 1 mM DTT at pH 6.8 (PM12 buffer). […] In Table 3, “Example Compound” refers to the compound labeled with the same number in Table 2.

| Structure (SMILES) | AC1.4 [µM] |
| --- | --- |
| CC[C@H](C)[C@H]1C(=O)Nc2ccccc2N1C(=O)c1ccc(N)nc1 [Compound 74, (S)-4-(6-aminonicotinoyl)-3-((S)-sec-butyl)-3,4-dihydroquinoxalin-2(1H)-one] | 0.08 |
| CC[C@H](C)[C@H]1C(=O)Nc2ccccc2N1C(=O)c1ccc(=O)[nH]c1 [Compound 75, (S)-3-((S)-sec-butyl)-4-(6-oxo-1,6-dihydropyridine-3-carbonyl)-3,4-dihydroquinoxalin-2(1H)-one] | 0.05 |
| CCC[C@H]1C(=O)Nc2ccccc2N1C(=O)c1cnn(C2CC2)c1 [Compound 76, (S)-4-(1-cyclopropyl-1H-pyrazole-4-carbonyl)-3-propyl-3,4-dihydroquinoxalin-2(1H)-one] | 0.47 |
| CC(C)[C@H]1C(=O)Nc2ccccc2N1C(=O)c1cnn(C)c1 [Compound 77, (S)-3-isopropyl-4-(1-methyl-1H-pyrazole-4-carbonyl)-3,4-dihydroquinoxalin-2(1H)-one] | 0.08 |
| CC[C@H](C)[C@H]1C(=O)Nc2ccccc2N1C(=O)c1cnn(CCO)c1 [Compound 78, (S)-3-((S)-sec-butyl)-4-(1-(2-hydroxyethyl)-1H-pyrazole-4-carbonyl)-3,4-dihydroquinoxalin-2(1H)-one] | 0.16 |
| CC[C@H](C)[C@H]1C(=O)Nc2ccccc2N1C(=O)c1cc[nH]n1 [Compound 79, (S)-3-((S)-sec-butyl)-4-(1H-pyrazole-3-carbonyl)-3,4-dihydroquinoxalin-2(1H)-one] | 0.88 |
| CC[C@H](C)[C@H]1C(=O)Nc2ccccc2N1C(=O)c1cnn(CC(N)=O)c1 [Compound 80, 2-(4-((S)-2-((S)-sec-butyl)-3-oxo-1,2,3,4-tetrahydroquinoxaline-1-carbonyl)-1H-pyrazol-1-yl)acetamide] | 0.63 |
| CC(C)[C@H]1C(=O)Nc2ccccc2N1C(=O)c1ccc(=O)n(C)c1 [Compound 81, (S)-3-isopropyl-4-(1-methyl-6-oxo-1,6-dihydropyridine-3-carbonyl)-3,4-dihydroquinoxalin-2(1H)-one] | 0.22 |
| CC(C)[C@H]1C(=O)Nc2ccccc2N1C(=O)c1ccc(N)nc1 [Compound 82, (S)-4-(6-aminonicotinoyl)-3-isopropyl-3,4-dihydroquinoxalin-2(1H)-one] | 0.26 |
| CC(C)[C@H]1C(=O)Nc2ccccc2N1C(=O)c1cnc2[nH]ncc2c1 [Compound 83, (S)-3-isopropyl-4-(1H-pyrazolo[3,4-b]pyridine-5-carbonyl)-3,4-dihydroquinoxalin-2(1H)-one] | 0.06 |
| CC(C)[C@H]1C(=O)Nc2ccccc2N1C(=O)c1cnn(C2CC2)c1 [Compound 84, (S)-4-(1-cyclopropyl-1H-pyrazole-4-carbonyl)-3-isopropyl-3,4-dihydroquinoxalin-2(1H)-one] | 0.29 |
| CC(C)[C@H]1C(=O)Nc2ccccc2N1C(=O)c1ccc(=O)[nH]c1 [Compound 85, (S)-3-isopropyl-4-(6-oxo-1,6-dihydropyridine-3-carbonyl)-3,4-dihydroquinoxalin-2(1H)-one] | 0.15 |
| CC(C)[C@H]1C(=O)Nc2ccccc2N1C(=O)c1cn[nH]c1 [Compound 86, (S)-3-isopropyl-4-(1H-pyrazole-4-carbonyl)-3,4-dihydroquinoxalin-2(1H)-one] | 0.2 |
| CC(C)[C@H]1C(=O)Nc2cccnc2N1C(=O)c1ccc(=O)n(C)c1 [Compound 87, (S)-3-isopropyl-4-(1-methyl-6-oxo-1,6-dihydropyridine-3-carbonyl)-3,4-dihydropyrido[2,3-b]pyrazin-2(1H)-one] | 2.15 |
| CC[C@H](C)[C@H]1C(=O)Nc2cnccc2N1C(=O)c1ccc(=O)[nH]c1 [Compound 90, (S)-2-((S)-sec-butyl)-1-(6-oxo-1,6-dihydropyridine-3-carbonyl)-1,4-dihydropyrido[3,4-b]pyrazin-3(2H)-one] | 0.71 |
| CC[C@H](C)[C@H]1C(=O)Nc2cnccc2N1C(=O)c1ccc(=O)n(C)c1 [Compound 91, (S)-2-((S)-sec-butyl)-1-(1-methyl-6-oxo-1,6-dihydropyridine-3-carbonyl)-1,4-dihydropyrido[3,4-b]pyrazin-3(2H)-one] | 0.72 |
| CC[C@H](C)[C@H]1C(=O)Nc2cccnc2N1C(=O)c1ccc(=O)n(C)c1 [Compound 92, (S)-3-((S)-sec-Butyl)-4-(1-methyl-6-oxo-1,6-dihydropyridine-3-carbonyl)-3,4-dihydropyrido[2,3-b]pyrazin-2(1H)-one] | 1.03 |

| Structure (SMILES) | AC1.4 [µM] |
| --- | --- |
| CC[C@H](C)[C@H]1C(=O)Nc2cccnc2N1C(=O)c1cnn(C)c1 [Compound 93, (S)-3-((S)-sec-butyl)-4-(1-methyl-1H-pyrazole-4-carbonyl)-3,4-dihydropyrido[2,3-b]pyrazin-2(1H)-one] | 1.73 |
| CC[C@H](C)[C@H]1C(=O)Nc2cncnc2N1C(=O)c1cnn(C)c1 [Compound 94, (S)-7-((S)-sec-butyl)-8-(1-methyl-1H-pyrazole-4-carbonyl)-7,8-dihydropteridin-6(5H)-one] | 1.66 |
| CC[C@H](C)[C@H]1C(=O)Nc2ncccc2N1C(=O)c1cnn(C)c1 [Compound 95, (S)-2-((S)-sec-butyl)-1-(1-methyl-1H-pyrazole-4-carbonyl)-1,4-dihydropyrido[2,3-b]pyrazin-3(2H)-one] | 0.84 |
| CC(C)C[C@H]1C(=O)Nc2cnccc2N1C(=O)c1cnn(C)c1 [Compound 96, (S)-2-isobutyl-1-(1-methyl-1H-pyrazole-4-carbonyl)-1,4-dihydropyrido[3,4-b]pyrazin-3(2H)-one] | 0.6 |
| CC[C@H](C)[C@H]1C(=O)Nc2cnccc2N1C(=O)c1ccccc1 [Compound 97, (S)-1-benzoyl-2-((S)-sec-butyl)-1,4-dihydropyrido[3,4-b]pyrazin-3(2H)-one] | 0.28 |
| CC[C@H](C)[C@H]1C(=O)Nc2cnccc2N1C(=O)c1cccc(C)c1 [Compound 98, (S)-2-((S)-sec-butyl)-1-(3-methylbenzoyl)-1,4-dihydropyrido[3,4-b]pyrazin-3(2H)-one] | 0.13 |
| CC[C@H](C)[C@H]1C(=O)Nc2ccccc2N1C(N)=O [Compound 99, (S)-2-((S)-sec-butyl)-3-oxo-3,4-dihydroquinoxaline-1(2H)-carboxamide] | 0.87 |
| CC[C@H](C)[C@H]1C(=O)Nc2c(F)cccc2N1C(N)=O [Compound 100, (S)-2-((S)-sec-Butyl)-5-fluoro-3-oxo-3,4-dihydroquinoxaline-1(2H)-carboxamide] | 1.58 |
| CC[C@H](C)[C@H]1C(=O)Nc2ccccc2N1C(=O)N1CC(O)C1 [Compound 101, (S)-3-((S)-sec-butyl)-4-(3-hydroxyazetidine-1-carbonyl)-3,4-dihydroquinoxalin-2(1H)-one] | 2.1 |
| CC[C@H](C)[C@H]1C(=O)Nc2ccccc2N1C(=O)NC [Compound 102, (S)-2-((S)-sec-butyl)-N-methyl-3-oxo-3,4-dihydroquinoxaline-1(2H)-carboxamide] | 0.94 |
| CCNC(=O)N1c2ccccc2NC(=O)[C@@H]1[C@@H](C)CC [Compound 103, (S)-2-((S)-sec-butyl)-N-ethyl-3-oxo-3,4-dihydroquinoxaline-1(2H)-carboxamide] | 0.78 |
| CC[C@H](C)[C@H]1C(=O)Nc2ccccc2N1C(=O)N1CCCC1 [Compound 104, (S)-3-((S)-sec-butyl)-4-(pyrrolidine-1-carbonyl)-3,4-dihydroquinoxalin-2(1H)-one] | 1.31 |
| CC[C@H](C)[C@H]1C(=O)Nc2ccccc2N1C(=O)NCCO [Compound 105, (S)-2-((S)-sec-butyl)-N-(2-hydroxyethyl)-3-oxo-3,4-dihydroquinoxaline-1(2H)-carboxamide] | 2.23 |
| CC[C@H](C)[C@H]1C(=O)Nc2ccccc2N1C(=O)N1CC[C@H](O)C1 [Compound 106, (S)-3-((S)-sec-butyl)-4-((S)-3-hydroxypyrrolidine-1-carbonyl)-3,4-dihydroquinoxalin-2(1H)-one] | 1.77 |
| CC[C@H](C)[C@H]1C(=O)Nc2ccccc2N1C(=O)N1CC[C@H](CO)C1 [Compound 107, (S)-3-((S)-sec-butyl)-4-((S)-3-(hydroxymethyl)pyrrolidine-1-carbonyl)-3,4-dihydroquinoxalin-2(1H)-one] | 0.44 |
| CC[C@H](C)[C@H]1C(=O)Nc2ccccc2N1C(=O)N1CC[C@@H](CO)C1 [Compound 108, (S)-3-((S)-sec-butyl)-4-((R)-3-(hydroxymethyl)pyrrolidine-1-carbonyl)-3,4-dihydroquinoxalin-2(1H)-one] | 2.77 |
